# Reference: ChEMBL document CHEMBL1138461, “4-Phenyl-7-azaindoles as potent and selective IKK2 inhibitors” (Bioorg Med Chem Lett, 2009)
# Experiments:
# [1] = target: T1, Inhibitor of nuclear factor kappa-B kinase subunit alpha (Homo sapiens, UniProt O15111); test: Inhibition of human recombinant IKK1
# T1 sequence (O15111 whole entry): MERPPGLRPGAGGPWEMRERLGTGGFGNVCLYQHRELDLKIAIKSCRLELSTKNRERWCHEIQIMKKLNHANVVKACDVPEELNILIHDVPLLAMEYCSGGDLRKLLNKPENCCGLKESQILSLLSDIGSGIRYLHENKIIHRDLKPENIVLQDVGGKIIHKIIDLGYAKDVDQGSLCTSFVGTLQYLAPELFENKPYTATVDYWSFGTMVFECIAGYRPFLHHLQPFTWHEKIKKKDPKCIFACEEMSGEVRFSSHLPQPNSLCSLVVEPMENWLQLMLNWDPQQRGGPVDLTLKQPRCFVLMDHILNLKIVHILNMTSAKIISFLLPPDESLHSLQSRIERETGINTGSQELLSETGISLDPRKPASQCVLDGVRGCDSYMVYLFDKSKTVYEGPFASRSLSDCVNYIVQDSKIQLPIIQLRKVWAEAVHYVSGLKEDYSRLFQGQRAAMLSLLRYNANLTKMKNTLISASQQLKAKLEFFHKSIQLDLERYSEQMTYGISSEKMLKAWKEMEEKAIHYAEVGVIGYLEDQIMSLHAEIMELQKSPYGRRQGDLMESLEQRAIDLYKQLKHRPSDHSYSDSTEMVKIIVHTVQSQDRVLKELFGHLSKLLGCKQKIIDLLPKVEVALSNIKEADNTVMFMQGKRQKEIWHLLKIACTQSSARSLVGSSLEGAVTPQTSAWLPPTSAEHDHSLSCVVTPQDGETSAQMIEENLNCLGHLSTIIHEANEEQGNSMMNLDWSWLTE
# [2] = target: T2, Inhibitor of nuclear factor kappa-B kinase subunit beta (Homo sapiens, UniProt O14920); test: Inhibition of human recombinant IKK2
# T2 sequence (O14920 whole entry): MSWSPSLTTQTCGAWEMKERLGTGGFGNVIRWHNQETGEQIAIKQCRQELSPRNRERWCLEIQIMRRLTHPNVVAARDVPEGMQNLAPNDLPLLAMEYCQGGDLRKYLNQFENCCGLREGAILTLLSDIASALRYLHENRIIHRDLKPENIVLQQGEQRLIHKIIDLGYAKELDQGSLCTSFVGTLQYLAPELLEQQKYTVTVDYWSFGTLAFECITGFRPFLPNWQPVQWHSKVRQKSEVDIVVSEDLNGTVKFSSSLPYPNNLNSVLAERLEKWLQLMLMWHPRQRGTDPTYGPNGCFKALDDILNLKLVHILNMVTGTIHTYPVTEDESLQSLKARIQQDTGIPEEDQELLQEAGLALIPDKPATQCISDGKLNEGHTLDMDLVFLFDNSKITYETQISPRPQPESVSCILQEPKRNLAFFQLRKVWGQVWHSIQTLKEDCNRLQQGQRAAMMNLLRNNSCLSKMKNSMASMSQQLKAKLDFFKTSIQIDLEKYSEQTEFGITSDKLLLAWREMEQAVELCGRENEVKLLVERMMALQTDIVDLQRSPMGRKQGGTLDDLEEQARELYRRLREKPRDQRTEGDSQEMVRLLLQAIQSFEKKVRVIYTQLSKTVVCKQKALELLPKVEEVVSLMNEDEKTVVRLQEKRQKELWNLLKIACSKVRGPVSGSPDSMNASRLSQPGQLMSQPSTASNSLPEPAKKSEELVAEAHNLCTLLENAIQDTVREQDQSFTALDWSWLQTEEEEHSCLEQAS
# [3] = tested on: A549; test: Inhibition of TNF-alpha-induced NF-kappaB […] activation in human A549 cells; assay type: functional, cell-based
# [4] = target: Glycogen synthase kinase-3 beta (Homo sapiens, UniProt P49841); test: Inhibition of GSK3-beta kinase
# Chain of Glycogen synthase kinase-3 beta (P49841 whole entry): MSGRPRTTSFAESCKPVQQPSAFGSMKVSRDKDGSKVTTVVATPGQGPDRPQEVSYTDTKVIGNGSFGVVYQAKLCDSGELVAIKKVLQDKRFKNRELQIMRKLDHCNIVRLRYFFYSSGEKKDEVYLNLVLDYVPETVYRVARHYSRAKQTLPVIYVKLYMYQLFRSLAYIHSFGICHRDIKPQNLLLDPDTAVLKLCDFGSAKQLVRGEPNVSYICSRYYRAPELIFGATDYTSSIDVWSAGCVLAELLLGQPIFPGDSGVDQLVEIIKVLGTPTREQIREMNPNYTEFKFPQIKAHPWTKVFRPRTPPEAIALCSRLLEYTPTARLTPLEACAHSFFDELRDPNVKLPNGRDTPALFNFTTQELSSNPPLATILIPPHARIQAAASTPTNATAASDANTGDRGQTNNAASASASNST
# [5] = target: Rho-associated protein kinase 1 (Homo sapiens, UniProt Q13464); test: Inhibition of human recombinant ROCK1
# Chain of Rho-associated protein kinase 1 (Q13464 whole entry): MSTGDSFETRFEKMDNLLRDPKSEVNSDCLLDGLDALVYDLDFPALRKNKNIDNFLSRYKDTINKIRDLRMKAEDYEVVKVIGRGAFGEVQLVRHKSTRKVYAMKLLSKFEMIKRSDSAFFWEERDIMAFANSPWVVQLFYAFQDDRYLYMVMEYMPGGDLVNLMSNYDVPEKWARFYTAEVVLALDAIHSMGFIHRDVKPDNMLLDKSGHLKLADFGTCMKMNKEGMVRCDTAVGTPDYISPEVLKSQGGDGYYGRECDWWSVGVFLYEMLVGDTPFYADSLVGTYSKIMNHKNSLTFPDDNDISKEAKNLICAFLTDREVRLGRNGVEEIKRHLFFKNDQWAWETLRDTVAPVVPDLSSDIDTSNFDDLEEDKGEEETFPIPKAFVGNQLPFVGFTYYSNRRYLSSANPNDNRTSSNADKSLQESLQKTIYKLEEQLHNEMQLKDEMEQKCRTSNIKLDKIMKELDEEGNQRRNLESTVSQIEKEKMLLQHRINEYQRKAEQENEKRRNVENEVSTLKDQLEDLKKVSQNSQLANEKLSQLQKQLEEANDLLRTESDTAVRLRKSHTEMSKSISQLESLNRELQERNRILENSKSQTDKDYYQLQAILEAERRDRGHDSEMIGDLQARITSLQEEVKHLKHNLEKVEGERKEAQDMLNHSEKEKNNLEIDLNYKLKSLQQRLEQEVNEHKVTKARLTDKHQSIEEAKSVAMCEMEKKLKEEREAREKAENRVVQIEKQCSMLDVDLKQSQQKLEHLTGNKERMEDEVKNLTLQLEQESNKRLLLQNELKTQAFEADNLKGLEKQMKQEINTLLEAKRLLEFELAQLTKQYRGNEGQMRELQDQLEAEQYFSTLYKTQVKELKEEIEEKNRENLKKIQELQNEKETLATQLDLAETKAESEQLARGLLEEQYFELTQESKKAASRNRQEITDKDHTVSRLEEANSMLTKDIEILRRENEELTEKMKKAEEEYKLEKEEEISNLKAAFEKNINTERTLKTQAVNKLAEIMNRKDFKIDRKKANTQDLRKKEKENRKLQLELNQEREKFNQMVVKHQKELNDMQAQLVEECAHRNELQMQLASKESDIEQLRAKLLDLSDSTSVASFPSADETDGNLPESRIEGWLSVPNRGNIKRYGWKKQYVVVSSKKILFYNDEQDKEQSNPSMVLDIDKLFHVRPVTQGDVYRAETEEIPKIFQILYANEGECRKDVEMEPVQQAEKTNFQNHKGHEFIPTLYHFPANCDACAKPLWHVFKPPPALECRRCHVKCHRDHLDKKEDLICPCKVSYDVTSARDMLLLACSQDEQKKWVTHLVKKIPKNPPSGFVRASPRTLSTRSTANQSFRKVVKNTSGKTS
# [6] = target: Aurora kinase B (Homo sapiens, UniProt Q96GD4); test: Inhibition of Aurora B kinase
# Chain of Aurora kinase B (Q96GD4 whole entry): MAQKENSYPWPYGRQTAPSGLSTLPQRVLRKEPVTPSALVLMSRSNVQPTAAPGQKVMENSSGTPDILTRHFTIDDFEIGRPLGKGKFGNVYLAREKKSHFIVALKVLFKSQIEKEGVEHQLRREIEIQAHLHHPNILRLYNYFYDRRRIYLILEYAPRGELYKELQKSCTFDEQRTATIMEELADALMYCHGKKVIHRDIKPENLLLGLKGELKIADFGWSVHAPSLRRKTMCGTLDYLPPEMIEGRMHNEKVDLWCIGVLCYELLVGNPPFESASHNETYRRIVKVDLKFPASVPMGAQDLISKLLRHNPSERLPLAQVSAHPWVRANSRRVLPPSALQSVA
Structure (SMILES),IC50 [1] [nM],IC50 [2] [nM],IC50 [3] [nM],IC50 [4] [nM],IC50 [5] [nM],IC50 [6] [nM]
c1ccc(-c2ccnc3[nH]ccc23)cc1,3980,3160,,,,
O=S(=O)(NC1CNC1)c1ccc(-c2ccnc3[nH]ccc23)cc1,31.6,39.8,,,,
Cc1cc2c(-c3ccc(S(=O)(=O)NC4CCS(=O)(=O)CC4)cc3)ccnc2[nH]1,12.6,20,50.1,,,
NC(=O)c1ccc(-c2ccnc3[nH]ccc23)cc1,398,631,,,,
Cc1cc2c(-c3ccc(S(=O)(=O)NCCO)cc3)ccnc2[nH]1,316,20,501,,,
NS(=O)(=O)c1ccc(-c2ccnc3[nH]ccc23)cc1,158,316,,,,
Cc1cc2c(-c3ccc(S(=O)(=O)N(C)CCO)cc3)ccnc2[nH]1,3160,39.8,,> 25100,> 10000,1580
CS(=O)(=O)Nc1ccc(-c2ccnc3[nH]ccc23)cc1,794,158,,,,
O=S1(=O)CCC(NS(=O)(=O)c2ccc(-c3ccnc4[nH]ccc34)cc2)CC1,50.1,79.4,,,,
NCCNS(=O)(=O)c1ccc(-c2ccnc3[nH]c(CC(N)=O)cc23)cc1,158,20,3980,,10000,
Cc1cc2c(-c3ccc(NS(=O)(=O)CCN)cc3)ccnc2[nH]1,126,15.8,2000,,,
CNCCNS(=O)(=O)c1ccc(-c2ccnc3[nH]ccc23)cc1,316,31.6,,,,
O=S(=O)(c1ccc(-c2ccnc3[nH]ccc23)cc1)N1CCCC1,1260,251,,,,
NS(=O)(=O)c1cccc(-c2ccnc3[nH]ccc23)c1,1260,5010,,,,
NCCNS(=O)(=O)c1ccc(-c2ccnc3[nH]ccc23)cc1,251,39.8,631,,20,
Cc1cc2c(-c3ccc(S(=O)(=O)N(C)C4CCS(=O)(=O)CC4)cc3)ccnc2[nH]1,1000,39.8,501,,,
Cc1cc2c(-c3ccc(S(=O)(=O)NCCN)cc3)ccnc2[nH]1,126,20,316,,316,
CN(C)CCNS(=O)(=O)c1ccc(-c2ccnc3[nH]ccc23)cc1,794,200,,,,
Cc1cc2c(-c3ccc(N(C)S(C)(=O)=O)cc3)ccnc2[nH]1,7940,316,2000,,,
Cc1cc2c(-c3ccc(NS(C)(=O)=O)cc3)ccnc2[nH]1,3980,63.1,1000,,,
